We go through two compounds from PubChem BioAssay (NCI).

Test systems include HS 578T breast; T-47D breast; SF-268 CNS; MDA-MB-231 breast; TK-10 renal; OVCAR-3 ovarian; NCI-H23 lung; SK-MEL-2 melanoma; UACC-62 melanoma; UACC-257 melanoma; CAKI-1 renal; KM12 colon; SR leukemia; U251 CNS; SNB-19 CNS; HCT-15 colon; SW-620 colon; LOX IMVI melanoma; EKVX NSCLC; HT29 colon; RXF 393 renal; SK-OV-3 ovarian; SK-MEL-5 melanoma; NCI-H460 lung; IGROV1 ovarian; OVCAR-5 ovarian; NCI-H226 lung; K-562 leukemia; HCC-2998 colon; NCI/ADR-RES ovarian; UO-31 renal; PC-3 prostate; ACHN renal; NCI-H522 lung; MOLT-4 leukemia; CCRF-CEM leukemia.

Holding throughout (experiment): NCI anticancer screen, dose series, 48 h

Converted amounts (≈) assume the structure as drawn.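 Interpolation was linear, between the two tested concentrations surrounding the appropriate level; five concentrations were tested over 48 hours in 96-well plates. GI50 is the concentration that inhibits growth by half. Definition used: TGI = concentration required for complete inhibition of growth.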 Peptide text beside a SMILES is read from it. Bounds are passed on as bounds.

With `Oc1c(N2CCOCC2)cc(-c2cc(N3CCOCC3)c(O)c3ccccc23)c2ccccc12`, the TGI is greater than 100 µM with HS 578T breast; 62.1 µM in the assay on T-47D breast; 17.8 µM in the assay with SF-268 CNS; greater than 100 µM in the assay with MDA-MB-231 breast; 28.9 µM in the assay on TK-10 renal; 15.6 µM in the assay on OVCAR-3 ovarian. Moreover, the TGI with NCI-H23 lung is 6.13 µM; in the assay on SK-MEL-2 melanoma, 8.29 µM; with UACC-62 melanoma it was 5.73 µM; in the assay on UACC-257 melanoma, 5.11 µM; with CAKI-1 renal, 13.8 µM; in the assay with KM12 colon, 25.4 µM. Moreover, the TGI was determined as 2.29 µM in the assay on SR leukemia; 3.34 µM in the assay on U251 CNS; 16.6 µM with SNB-19 CNS; 6.38 µM with HCT-15 colon; 6.34 µM in the assay on SW-620 colon; 7.09 µM with LOX IMVI melanoma. Further, the TGI with EKVX NSCLC worked out at 41.6 µM; in the assay on HT29 colon, 5.26 µM; with RXF 393 renal, 6.03 µM; in the assay with SK-OV-3 ovarian, 51.9 µM; in the assay with SK-MEL-5 melanoma it was 3.35 µM; in the assay with NCI-H460 lung, 11.4 µM. The TGI in the assay with IGROV1 ovarian was found to be 7.16 µM; in the assay with OVCAR-5 ovarian, 7.25 µM; with NCI-H226 lung, 59.8 µM; with K-562 leukemia, 6.64 µM; in the assay with HCC-2998 colon it was 5.78 µM; in the assay with NCI/ADR-RES ovarian, 15.6 µM. In addition, the TGI in the assay on UO-31 renal stood at 4.66 µM; in the assay on PC-3 prostate, 14.6 µM; with ACHN renal, 11 µM; in the assay on NCI-H522 lung it was 4.89 µM.

Turning to `CCOC(=O)CNC(=O)C(Cc1ccccc1)NC(=O)C(N)CC(=O)O` (stereo not drawn) (H-Asp-Phe-Gly-OEt; configuration not given here), the GI50 in the assay with HS 578T breast was 9.31 µg/mL (≈ 25.5 µM); in the assay with UACC-62 melanoma it was 30.3 µg/mL (≈ 82.9 µM); in the assay with MOLT-4 leukemia it was 23.7 µg/mL (≈ 64.9 µM); with KM12 colon, 0.194 µg/mL (≈ 0.532 µM); with CCRF-CEM leukemia it was 85.2 µg/mL (≈ 233 µM).
